One block for each compound: values may come before it.
Legend:
Format in all cases: physicochemical
model mAb = assay: Thermal conformational protein stability in presence of surfactants (nanoDSF); settings: for effect on mAbs' conformational stability: elevated surfactant concentrations; for change of Tm1: surfactant 10 mg/mL; for change in thermal conformational stability properties: already at lower concentrations of 0.1 & mg/mL
Description: Conformational protein stability was investigated with the Prometheus NT.Plex (NanoTemper Technologies GmbH, München, Germany). The device allows the label-free fluorimetric analysis of the change in intrinsic protein fluorescence from aromatic tryptophan and tyrosine residues by using small quantities of solution. Thermal induced protein unfolding was monitored by detecting the emission shift at 330 nm and 350 nm at a laser power of 5%. The nanoDSF grade standard capillary chips (NanoTemper Technologies, München, Germany) were filled with 10 μL of freshly prepared (t0) formulation containing 25 mg/mL mAb compounded with either 0.01, 0.1, 1 or 10 mg/mL of the specific surfactant. Sodium dodecyl sulfate (SDS) was taken as positive control since the charge as been reported to lead to destabilization of proteins presumably by chare-charge interactions. Samples were heated from 25 to 95° C. with a constant heating ramp of 0.5° C. per minute. The PR.StabilityAnalysis software (NanoTemper Technologies, München, Germany) automatically calculated the onset (Ton) and first transition point (Tm1) temperature of the melting curve. Data reported are the mean value of three individual measurements.
Stability indicating parameters being the onset temperature (Ton) of unfolding and the first melting transition (Tm1) were measured for the model mAb in presence of surfactants at concentrations ranging from 0.01 mg/mL to 10 mg/mL (see FIG. 4).

mAb 1 [1] = assay: Protein stability in presence of surfactants after mechanical stresses (shaking, freeze-thaw) and thermal stress, mAb 1; settings: for particle formation upon shaking: 200 rpm, 7 days, 5° C. and 25° C.; for SVP ≥10 μm per container after shaking: criteria of maximum 6,000 particles≥10 μm per container
Experimental: (§1) Surfactant performance screens were carried out with 0.1 and 1 mg/mL of the surfactant in the formulation of the model mAb described within the Materials section. After compounding the liquid samples were sterile filtered through 0.22 μm Millex Sterivex™ GV (Millipore, Bedford, USA) filter units, filled into 6 mL type 1 glass vials and closed with Ø 20 mm teflon® coated serum stoppers (DAIKYO Seiko Ltd., Tokyo, Japan). The stoppered vials were crimped using an aluminum cap (Infochroma AG, Goldau, Switzerland). The corresponding placebo formulations were equally prepared, formulated and used as respective controls.
To evaluate the effects of the surfactants on the mAb's stability the formulations were exposed to various interfacial stress conditions like agitation and various freeze-thaw cycles. Shaking stress was carried by placing the vials horizontally for seven days at 5° C. and 25° C. protected from light within a shaker (HS 260 Control Model; IKA Werke GmbH & Co. KG; Staufen, Germany) at constant 200 rounds per minute (rpm). Freeze-thaw (F/T) stress was performed by exposing the vials to five consecutive cycles of freezing at −20° C. and thawing at 5° C.
(§2) Thermal stability data was generated by storing the liquid protein formulations for up to 24 months (mo) at 5° C., for 6 months at 25° C./60% relative humidity (rH) and 12 weeks at 40° C./75% rH. Samples were analyzed at initial time point (t0) and after 1 mo, 3 mo, 6 mo, 12 mo, 18 mo and 24 months of storage using the subsequently described analytical methods
Enhanced visual inspection was performed as previously described using a Seidenader V 90-T machine (Seidenader Maschinenbau GmbH, Markt Schwaben, Germany)[58]. The number of particles were categorized into four classes: class (I) is equivalent to 0 particles, class (II) is equivalent to 1-5 particles, class (III) is equivalent to 6-10 particles and class (IV) is equivalent to >10 particles.
Turbidity was determined as previously described in literature and according to Ph. Eur. 2.2.1 using a 2100AN turbidimeter (Hach Lange GmbH, Dusseldorf, Germany) calibrated with a StablCal® calibration kit (Hach Lange GmbH). Results were given as Nephelometic Turbidity Units (NTU).
The color of the solutions was assessed by means of a LICO 690 Colorimeter (Hach Lange GmbH). Classification was performed according to the color scale described in Ph. Eur. 2.2.2.. Data presented herein show the degree of color change according to color scale values of Ph.Eur. 2.2.2: class (I) is equivalent to color scale values of 9, 8, 7, or colorless; class (II) is equivalent to color scale values of 6 or 5; class (III) is equivalent to color scale values of 4 or 3; and class (IV) is equivalent to color scale values of 2 or 1.
Sub-visible particle (SVP) count was measured by means of light obscuration using a HIAC 9703+ liquid particle counting system (Skan AG, Allschwil, Switzerland) and PharmSpec 3 (Hach Lange GmbH) software. The applied measurement technique was adapted from the method described in Ph.Eur. 2.9.19 [61] and USP <787>[62]. After rinsing the system with sample solution, four runs with a sample volume of 0.2 mL were performed. The final cumulative particle count was obtained by calculating the mean ±SD (standard deviation) from the last three measurements. SVP bigger than or equal to 2, 5, 10 and 25 μm were measured and presented as cumulative counts per mL of solution.
Detection of soluble mAb aggregates, in the following referred to as high molecular weight species (HMWS), the monomer and the low molecular weight species (LMWs) were analyzed by SE-HPLC. The utilized system comprised an Alliance 2695 HPLC instrument equipped with a 2487 UV detector (both from Waters Corporation, Milford, MA). The autosampler temperature was set to 5° C. and the system was loaded with total 100 μg of the mAb. […]

mAb 1 [2] = assay: Long-term protein stability (storage at 5° C. and 25° C.), mAb 1; settings: higher concentrations
Experimental: as §1
as §2, with “methods […]” for “methods”
Turbidity was determined as previously described in literature and according to Ph. […]
The color of the solutions was assessed by means of a LICO 690 Colorimeter (Hach Lange GmbH). […]
Sub-visible particle (SVP) count was measured by means of light obscuration using a HIAC 9703+ liquid particle counting system (Skan AG, Allschwil, Switzerland) and PharmSpec 3 (Hach Lange GmbH) software. […]

[3] = Surface tension measurement (dynamic surface tension, DST); settings: mAb formulation at t0
Experimental: Surface tension measurements were performed by means of liquid handling stations according to a method described by Amrhein et al.[63]. Briefly, the measurement depends on the correlation between drop mass and the surface tension of the sample. For this study a fully automated liquid handling station Freedom 384 EVO 200 (Tecan, Crailsheim, Germany) was equipped with an analytical balance (Mettler Toledo, Columbus, USA). The system contains stainless fixed tips which aspirate the sample with 100 μL·s^−1 from a sealed 1 mL round bottom LoBind® Deepwell Plate (Eppendorf, Hamburg, Germany). The sample was dispensed with 3 μL·s^−1 to a second round bottom Deepwell Plate 96/500 μL (Eppendorf, Hamburg, Germany) mounted on an analytical balance. The weight was recorded continuously using fully automated routines written in Matlab R2017b (MathWorks, Natick, MA, USA). The surface tension of water (72.6 mN/m) was used as a reference for calculations. The mean of three individual measurements of the samples (at t0) is reported as surface tension.

Compound: C[C@H](CCC(=O)N(CCCNC(=O)[C@H](O)[C@@H](O)[C@H](O)[C@H](O)CO)CCCNC(=O)[C@H](O)[C@@H](O)[C@H](O)[C@H](O)CO)[C@H]1CC[C@H]2[C@@H]3CC[C@@H]4C[C@H](O)CC[C@]4(C)[C@H]3C[C@H](O)[C@]12C [DBC, Deoxy-BigCHAP]
effect on mAbs' conformational stability (model mAb): destabilizing effect
change of Tm1 (model mAb): slight decrease
change of Ton (model mAb; surfactant 1 and 10 mg/mL): slight decrease in Ton
visible particles initially (mAb 1 [1]; 1 mg/mL surfactant): many particles initially
particle formation upon shaking (mAb 1 [1]): particle formation particularly after agitation
SVP ≥10 μm per container after shaking (mAb 1 [1]): exceeded USP <787> criteria
solubility in formulation (mAb 1 [2]): solubility issues

Compound: C[C@H](CCC(=O)NCC(=O)[O-])[C@H]1CC[C@H]2[C@@H]3[C@H](O)C[C@@H]4C[C@H](O)CC[C@]4(C)[C@H]3C[C@H](O)[C@]12C.O.[Na+] [NaGC, sodium glycocholate hydrate]
change in thermal conformational stability properties (model mAb): strong decrease in thermal conformational stability properties

Compound: CCCCCCCCCCCCOS(=O)(=O)[O-].[Na+] [SDS, Sodium dodecyl sulfate, reference compound]
effect on Ton and Tm1 compared to reference formulation without surfactant (model mAb; surfactant 0.01 to 10 mg/mL): concentration dependent destabilizing effect

Compound: Chobimalt
effect on mAbs' conformational stability (model mAb): no impact
change of Ton (model mAb; surfactant 1 mg/mL or higher): slight increase of Ton
color after shaking stress (mAb 1 [1]): strong change in color
stabilizing effect upon F/T studies (mAb 1 [1]; 5 freeze-thaw cycles): missing stabilizing effect at the interface
particle formation upon shaking (mAb 1 [1]): strongest particle formation upon shaking
SVP ≥10 μm per container after shaking (mAb 1 [1]): exceeded USP <787> criteria
dynamic surface tension [3]: around 73 mN/m

Compound: sodium deoxy cholate [NaDC]
change in thermal conformational stability properties (model mAb): strong decrease in thermal conformational stability properties

The next lines start with the values.

effect on mAbs' conformational stability (model mAb): destabilizing effect
change of Tm1 (model mAb): comparable destabilizing effect
change of Ton (model mAb; surfactant 1 and 10 mg/mL): comparable destabilizing effect
Compound: CCCCCCCCCC(=O)N(CCO)C[C@H](O)[C@@H](O)[C@H](O)[C@H](O)CO [HEGA-10, decanoyl-N-hydroxyethylglucamide]

effect on mAbs' conformational stability (model mAb): destabilizing effect
change of Tm1 (model mAb): comparable destabilizing effect
change of Ton (model mAb; surfactant 1 and 10 mg/mL): comparable destabilizing effect
Compound: CCCCCCCCC(=O)N(C)C[C@H](O)[C@@H](O)[C@H](O)[C@H](O)CO [MEGA-9, nonanoyl-N-methylglucamide]
